The numbers were not newly measured in patent publication US12233088B2 (Alexion Pharmaceuticals, Inc., priority 2017, dated 2025), which cites them from elsewhere.

The test system of this series is patients with Wilson's disease. The settings on record: cited from earlier work; for patients with worsening of neurological symptoms on initiation of treatment: reported.

Turning to `CC(C)(S)[C@@H](N)C(=O)O` [penicillamine, D-penicillamine], the “patients with worsening of neurological symptoms on initiation of treatment” value was “approximately 25%”. For the same compound, where the note is “Litwin et al.”, the “mean time to neurological worsening from initiation” value is on record as 2.3 months. For the same compound, the “patients with early neurological worsening, n (%)” value (of 42 patients with neurological Wilson's disease, Litwin et al.) is given as 12 (29%).
With `NCCNCCNCCN` [trientine], the “patients with worsening of neurological symptoms on initiation of treatment” value is reported as “approximately 25%”.
As to `[Zn]` [zinc], under “Polish cohort, Wiernicka et al.”, the “children with gastrointestinal adverse events” value is listed as 40%. In addition, the “patients who discontinued treatment because of adverse events” value (retrospective study) is listed as 11%.
